Data from publication PMC5676773, “Odor-evoked inhibition of olfactory sensory neurons drives olfactory perception in Drosophila” (Nature Communications, 2017).

What was measured:
[1] = target: T1, Or85a (OR/ORCO complex in Or85a-OSNs) (Drosophila melanogaster, UniProt Q9VHS4); test: perforated patch clamp of Or85a-OSNs, inward receptor current; format: cell-based; settings: 35-ms odor pulses, no acetophenone; excitatory odor (agonist); nominal concentration in saline; voltage-clamped; read-out: K 1/2
T1 construct: native receptor in Or85a-expressing olfactory sensory neurons, antennal slices; GFP-labelled via Or85a-Gal4; with Odorant receptor coreceptor
T1 sequence (Q9VHS4 1-397): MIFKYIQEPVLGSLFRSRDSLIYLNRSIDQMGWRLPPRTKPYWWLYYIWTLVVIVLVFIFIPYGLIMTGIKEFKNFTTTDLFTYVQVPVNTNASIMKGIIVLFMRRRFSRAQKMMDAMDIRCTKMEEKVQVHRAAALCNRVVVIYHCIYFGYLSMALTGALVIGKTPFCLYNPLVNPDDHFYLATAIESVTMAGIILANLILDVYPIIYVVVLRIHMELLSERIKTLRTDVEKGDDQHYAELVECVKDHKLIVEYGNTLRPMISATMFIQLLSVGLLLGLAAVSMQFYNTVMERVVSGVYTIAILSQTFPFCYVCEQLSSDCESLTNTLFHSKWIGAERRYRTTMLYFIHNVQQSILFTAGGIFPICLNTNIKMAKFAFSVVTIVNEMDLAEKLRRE
T1 sequence (Q9VNB5 1-486 partner): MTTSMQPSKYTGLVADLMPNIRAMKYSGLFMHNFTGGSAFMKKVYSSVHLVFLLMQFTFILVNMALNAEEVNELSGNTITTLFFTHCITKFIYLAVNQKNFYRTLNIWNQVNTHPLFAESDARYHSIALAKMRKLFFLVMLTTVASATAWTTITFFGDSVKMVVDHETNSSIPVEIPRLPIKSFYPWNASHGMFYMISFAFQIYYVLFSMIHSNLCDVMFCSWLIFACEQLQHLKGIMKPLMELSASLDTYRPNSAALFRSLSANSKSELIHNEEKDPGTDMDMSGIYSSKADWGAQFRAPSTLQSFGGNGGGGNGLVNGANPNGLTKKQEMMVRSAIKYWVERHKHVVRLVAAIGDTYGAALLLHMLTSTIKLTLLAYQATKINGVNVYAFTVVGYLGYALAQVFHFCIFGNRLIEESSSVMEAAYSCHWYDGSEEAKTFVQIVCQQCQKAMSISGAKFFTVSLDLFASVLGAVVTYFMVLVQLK

[2] = target: T1, Or85a (OR/ORCO complex in Or85a-OSNs); test: perforated patch clamp of Or85a-OSNs, outward receptor current (reduction of basal current); format: cell-based; settings: 150-ms odor pulses, -80 mV; inhibits constitutive activity (inverse agonist), competitive against ethyl 3-hydroxybutyrate; Hill fit, n = 4; read-out: K 1/2

Compound | EC50 [1] [mM] | IC50 [2] [mM]
CCOC(=O)CC(C)O (centres unmarked) [ethyl 3-hydroxybutyrate] | 1.1 ± 0.2 | –
CC(=O)c1ccccc1 [acetophenone] | – | 27 ± 13
